# Assay results published in patent US11324237B2, “Tasteful natural sweetener and flavor” (EPC Natural Products Co., Ltd., priority 2018, dated 2022).
# “Also recorded” adds a separate entry of the source.
# What was measured:
# [1] = relative to sugar; cited from earlier work
# [2] = Assay to test Reducing Power (iron-III reduction test for anti-oxidant potential); conditions: combinations of amino acids and Reb-A, 10 mM, pH 7.8, 100° C., diluted 1:10 (FIG. 49)
# Experimental: 0.2 M Sodium phosphate buffer, pH=6.6; 500 mg Potassium ferric(III)cyanide/50 mL water, 10% Trichloroacetic acid; 20 mg Iron-III-Chloride/20 mL water; Calibration samples were prepared with Ascorbic acid in a concentration of 0-100 μg/mL 0.2 M Sodium phosphate buffer, pH=6.6 (freshly prepared); as negative control sample water was used.
# Samples in aqueous solution were used as such or diluted in 0.2 M Sodium phosphate buffer, pH=6.6.
# A 1 mL sample (or calibration standard) was mixed with 1 mL 0.2 M Sodium phosphate buffer, pH=6.6 and 1 mL Potassium ferricyanide solution. The sample was incubated and protected from light at 50° C. for 20 min.
# To the solution was added 1 mL Trichloroacetic acid with thorough mixing.
# A 1 mL of the mixture was diluted with 1 mL H2O and 0.2 mL Iron-Ill-chloride and reacted for 10 minutes; The absorbance was then determined at 700 nm against H2O.
# 10 mM of amino acid and/or 10 mM sugar were dissolved in 10 ml 0.1 mM KH2PO4-buffer, pH=7.8. […]
# 1 ml sample (or calibration standard) solution) was mixed with 0.2 M Sodium phosphate buffer (pH=6.6) and 1 ml Potassium ferric(III)cyanide solution in water (1% w/v) and incubated at 50° C. for 20 minutes. […] The sample was incubated for 10 minutes and absorbance read at 700 nm against a water control. […]
# Quantification was performed by linear regression of calibration test results for ascorbic acid. […]
# [3] = Assay to test DPPH radical-scavenging activity; conditions: combinations of amino acids and Reb-A, 10 mM, pH 7.8, 100° C., diluted 1:10 (FIG. 50)
# Experimental: 1 mg 1,1-Diphenyl-2-picrylhydrazyl radical (DPPH)/ml ethanol, dilution to assay concentration were prepared in ethanol (40 μg/mL); Calibration samples were prepared with Ascorbic acid in a concentration of 0-10 μg/mL; as a negative control sample, water was used.
# Samples in aqueous solution were used as such or diluted with water.
# A 0.1 ml sample (or calibration standard) was mixed with 3.9 ml solution of DPPH° (100 μMolar) and reacted while protected from light at room temperature for 30 min. Absorbance was determined at 517 nm against ethanol.
# 10 mM of amino acid and/or 10 mM sugar were dissolved in 10 ml 0.1 mM KH2PO4-buffer, pH=7.8.
# The samples were kept at 100° C. in sealed glass vials (Pyrex 15 ml with screw caps) for 0 (before reaction), 2.5 or 5.0 hours. Thereafter the samples were transferred to an ice water bath and cooled down to room temperature. These samples were diluted 1:10 and used for the test assay for anti-oxidant potential. […]
# 0.2 ml sample (or calibration standard) solution was mixed with 0.2 ml solution of DPPH® (0.1 mM) and 3.6 ml methanol. […] After 3 minutes the absorbance at 517 nm was obtained against ethanol. Quantification was performed by linear regression of calibration test results for ascorbic acid. […]
# [4] = Sensory evaluation of combinations of EPCalin, GSGs and SGs and NHDC in water (Example 234); format: in vivo, human; conditions: 4.5 ppm Thaumatin and/or 50 ppm GSGs and SGs
# Experimental: 4.5 ppm Thaumatin (equivalent to 10 ppm EPCalin) were dissolved in water. Increasing amounts of NHDC (1-5 ppm) were added to the solution and the sensory properties were evaluated.
# 50 ppm (GSGs and SGs) were dissolved in water. Increasing amounts of NHDC (1-5 ppm) were added to the solution and the sensory properties were evaluated.
# 50 ppm (GSGs and SGs) and 4.5 ppm Thaumatin (equivalent to 10 ppm EPCalin) were dissolved in water. Increasing amounts of NHDC (1-5 ppm) were added to the solution and the sensory properties were evaluated.
# Sweetness Intensity was Rated on 5-Point Scale
# [5] = Stevia-derived MRPs with NHDC and thaumatin, alone and in Redbull sugar free (Example 240); format: in vivo, human; conditions: added before heating to stevia derived MRP; 150 μl in 100 ml Redbull sugar free
# Experimental: 150 μl of the each sample was added to 100 ml Redbull sugar free and mixed. The taste profiles of the samples were compared. As a control, a RedBull sugar free sample without the addition of SteviAroma was used.
# Before tasting the tasters discussed the upcoming series of samples and tasted samples with predetermined attributes with varying intensities to find a commonality in description. Four trained tasters blind taste tested independently all samples of a series. They were allowed to re-taste and made notes for the sensory attributes perceived including the relative intensity.
# In the last step the attributes noted were discussed openly to find an acceptable description. In case that more than 1 taster disagreed with the description, the tasting was repeated.
structure (smiles),measurement,setting,value
C[C@H](CC[C@@H](O[C@@H]1O[C@H](CO)[C@@H](O)[C@H](O)[C@H]1O[C@@H]1O[C@H](CO)[C@@H](O)[C@H](O)[C@H]1O)C(C)(C)O)[C@H]1CC[C@@]2(C)[C@H]3CC=C4[C@@H](CC[C@H](O[C@@H]5O[C@H](CO[C@@H]6O[C@H](CO)[C@@H](O)[C@H](O)[C@H]6O)[C@@H](O)[C@H](O)[C@H]5O)C4(C)C)[C@]3(C)[C@H](O)C[C@]12C [mogroside IV],natural sweetness,[1],126 times of that of sugar
"C=C1C[C@@]23CC[C@H]4[C@@](C)(CCC[C@@]4(C)C(=O)O[C@@H]4O[C@H](CO)[C@@H](O)[C@H](O)[C@H]4O)[C@@H]2CC[C@]1(O[C@@H]1O[C@H](CO)[C@@H](O)[C@H](O[C@@H]2O[C@H](CO)[C@@H](O)[C@H](O)[C@H]2O)[C@H]1O[C@@H]1O[C@H](CO)[C@@H](O)[C@H](O)[C@H]1O)C3 [Reb-A, Rebaudioside A]",active iron-III reduction (anti-oxidant properties),[2],substantial anti-oxidant properties
same,radical scavenging properties (anti-oxidant properties),[3],substantial anti-oxidant properties
OC[C@@H](O)[C@@H](O)[C@H](O)[C@H](O)CO [D-mannitol],natural sweetness,[1],0.55-0.65 times of that of sugar
"COc1ccc(CCC(=O)c2c(O)cc(O[C@@H]3O[C@H](CO)[C@@H](O)[C@H](O)[C@H]3O[C@@H]3O[C@@H](C)[C@H](O)[C@@H](O)[C@H]3O)cc2O)cc1O [NHDC, Neohesperidin dihydrochalcone]",sensory properties of combinations with NHDC,[4],long lasting lingering; also recorded: boosts the lingering
same,taste profile in sugarfree beverage,[5],improved the mouth-feel and harmony of taste impression yielding a substantially improved taste profile
C[C@H](CC[C@@H](O[C@@H]1O[C@H](CO[C@@H]2O[C@H](CO)[C@@H](O)[C@H](O)[C@H]2O)[C@@H](O)[C@H](O)[C@H]1O[C@@H]1O[C@H](CO)[C@@H](O)[C@H](O)[C@H]1O)C(C)(C)O)[C@H]1CC[C@@]2(C)[C@@H]3CC=C4[C@@H](CC[C@H](O[C@@H]5O[C@H](CO[C@@H]6O[C@H](CO)[C@@H](O)[C@H](O)[C@H]6O)[C@@H](O)[C@H](O)[C@H]5O)C4(C)C)[C@]3(C)[C@H](O)C[C@]12C [mogroside V],natural sweetness,[1],256-344 times of that of sugar
